Experimental data from patent US20240216313A1, “ELAFIBRANOR DERIVATIVES AGONISTS OF PPAR FOR USE IN THE TREATMENT OF SEPSIS” (Genfit, priority 2021, published 2024).
Like-named read-outs stand apart in the source and are kept apart here.

How the values were obtained:
HepG2 cells = experiment: Staurosporin-induced apoptosis in HepG2 cells (caspase 3/7 activity, Caspase Glo); format: cell-based, human; conditions: 16 h pre-treatment, then 10 μM staurosporin 4 h; for inhibition at 0.3 µM: Homo sapiens, HepG2, 0.3 μM, read-out: % Inhibition of caspase activity over mean Veh.
Procedure: In order to evaluate the effect of the compounds on human hepatocytes that undergo a cellular stress induced by staurosporin, the human hepatoblastoma-derived HepG2 cell line (ECACC, #85011430, Sigma-Aldrich) was cultured in high-glucose DMEM medium (#41965, Gibco, France) supplemented with 10% of fetal bovine serum (FBS, #10270, Gibco), 1% penicillin/streptomycin (#15140, Gibco), 1% sodium pyruvate (#11360, Gibco) and 1% MEM non-essential amino acids (#11140, Gibco) in a 5% CO2 incubator at 37° C.
To evaluate caspase 3/7 activity, which is a surrogate marker of apoptosis, 1.5×10^4 cells were plated in a 384-well plate (#781080, Greiner, France). After cell adherence (8 hours), cells were serum starved for 16 h in the presence of 0.3 μM of compounds or vehicle. Cpd.1 was also used at 3 and 10 μM. Thereafter, cells were treated with 10 μM staurosporin (#569397, Sigma-Aldrich, Germany) supplemented with compound for additional 4 hours before cell lysis and caspase activity measurement.
Caspase 3/7 activity was measured using Caspase Glow™ 3/7 assay (#G8093, Promega, USA). Luminescence was measured using a Spark microplate reader (#30086376, Tecan, USA). The amount of luminescence (RLU) directly correlates with caspase 3/7 activity.

[1] = system: THP1 differentiated macrophages; experiment: Macrophage activation: cytokine production by THP1 differentiated macrophages stimulated with LPS (E. coli O55:B5); format: cell-based, human; conditions: compound 24 h, then 100 ng/mL LPS E. coli 6 h
Procedure: (§1) In order to test the efficacy of the compounds on macrophage activation and pro-inflammatory cytokine production, 2.5×10^4 THP-1 cells were cultured in a 384-well plate and treated with 100 ng/mL PMA (#P8139, Sigma) for 24 h to induce differentiation into macrophages.
Then, medium was removed and FBS-deprived medium containing the compound of formula (I) was added for 24 h. Finally, THP1 macrophages were stimulated with 100 ng/mL LPS (E. coli O55:B5, #L4005, Sigma) for 6 h.

LPS-induced endotoxemia = experiment: Preclinical model of endotoxemia: hepatic markers (total bilirubin, albumin) and TNFα in rat serum; format: in vivo, male Sprague Dawley rats; conditions: rats, 3 mg/kg/day oral gavage 3 days before LPS, blood 3 h after LPS
[2] = system: CLP induced polymicrobial sepsis; experiment: Cecal ligation and puncture (CLP) model of polymicrobial sepsis: survival; format: in vivo, C57BL6J male mice; conditions: mice, 0.3 mg/kg p.o.
Procedure: This study aims to investigate the efficacy of Cpd.1 in cecal ligation and puncture (CLP) model in C57BL6J (BL6) male mice. The efficacy of the test compound was evaluated based on the survival rate of the animals within the study period.
C57BL6J male mice (supplier Janvier—France) at 9 weeks of age and weighing 23-25 g on arrival were anesthetized with 250 μL of xylazine/ketamine solution (20 mg/100 g body weight) by intraperitoneal route. A 1-1.5 cm abdominal midline incision was made, and the caecum was located and tightly ligated at half the distance between distal pole and the base of the cecum with 4-0 silk suture (mild grade). The caecum was punctured through-and-through once with a 21-gauge needle from mesenteric toward antimesenteric direction after medium ligation. A small amount of stool was extruded to ensure that the wounds were patent. Then the cecum was replaced in its original position within the abdomen, which was closed with sutures and wound clips. Mice were followed for body weight evolution and mortality rate until Day 6.
Cpd.1 or vehicle (Labrafil M 1944 CS, #3063, Gattefossé) was administrated at 0.3 mg/kg, p.o. for three days before CLP surgery. The day of CLP (day 0), Cpd.1 was administrated 1 h before surgery and pursued daily until day 6. Experiment was terminated at day 7.
Two groups of C57BL6J mice at the age of 9 weeks were treated as described above. • 1. […]

THP1 macrophages = experiment: Macrophage activation: MCP1 and TNFα secretion induced by LPS from Klebsiella in THP1 macrophages (HTRF); format: cell-based, human; conditions: 24 h, then LPS Klebsiella 6 h; for inhibition at 10 µM / inhibition at 1 µM: Homo sapiens; for inhibition at 10 µM: THP-1, 10 μM; for inhibition at 1 µM: THP-1, 1 μM
Procedure: as §1
Then, medium was removed and FBS-deprived medium containing 1 or 10 μM compound was added for 24 h. Finally, THP1 macrophages were stimulated for 6 h with 100 ng/mL LPS (Klebsiella pneumoniae, #L4268, Sigma-Aldrich).
Monocyte chemoattractant protein 1 (MCP1) and […] (TNFα) were measured in cell supernatants by Homogeneous Time Resolved Fluorescence (HTRF, #62[…] for TNFα, and 62HCCL2PEG for MCP1, Cisbio). Fluorescence was measured with Infinite 500 (#30019337, Tecan) to determine the concentration of cytokines.

[3] = read-out: % inhibition of MCP1 secretion over mean Veh.
[4] = read-out: % inhibition of TNFα secretion over mean Veh.

Compound	inhibition at 0.3 µM (HepG2 cells) [%]	inhibition at 10 µM (THP1 macrophages; [3]) [%]	inhibition at 10 µM (THP1 macrophages; [4]) [%]	further results
COC(CCc1cc(C)c(OC(C)(C)C(=O)O)c(C)c1)c1ccc(OC(F)(F)F)cc1 (stereo not drawn) [Cpd. 1, 2-[4-(3-methoxy-3-(4-(trifluoromethoxy)phenyl)propyl)-2,6-dimethylphenoxy]-2-methylpropanoic acid]				reduction of staurosporin-induced caspase activity, dose dependence (HepG2 cells; 0.3, 3 and 10 μM): reduced caspase activity induced by staurosporin in a dose-dependent manner; reduction of TNFα secretion [1]: potent at reducing TNFα; reduction of MCP1 secretion ([1]; all doses tested): overpassing the untreated condition for MCP1 secretion at all doses tested; serum total bilirubin level compared to the vehicle condition (LPS-induced endotoxemia): completely restored the level of total bilirubin; side effect recorded after each administration [2]: No side effect
Cc1cc(CCC(=O)c2ccc(OC(F)(F)F)cc2)cc(C)c1OC(C)(C)C(=O)O [Cpd. 2, 2-[2,6-dimethyl-4-[3-[4-(trifluoromethyloxy)phenyl]-3-oxo-propyl]phenoxy]-2-methylpropanoic acid]	70	106		
Cc1cc(CCC(=O)c2ccc(C(F)(F)F)cc2)cc(C)c1OC(C)(C)C(=O)O [Cpd. 3, 2-[2,6-dimethyl-4-[3-[4-(trifluoromethyl)phenyl]-3-oxo-propyl]phenoxy]-2-methylpropanoic acid]		107	20	
CSc1ccc(C(CCc2cc(C)c(OC(C)(C)C(=O)O)c(C)c2)OC(C)C)cc1 (stereo not drawn) [Cpd. 5, 2-[2,6-dimethyl-4-[3-[4-(methylthio)phenyl]-3-isopropyloxypropyl]phenoxy]-2-methylpropanoic acid]		110		
Cc1cc(CCC(O)c2ccc(OC(F)(F)F)cc2)cc(C)c1OC(C)(C)C(=O)O (stereo not drawn) [Cpd. 6, 2-(4-(3-hydroxy-3-(4-(trifluoromethoxy)phenyl)propyl)-2,6-dimethylphenoxy)-2-methylpropanoic acid]	43	103		
CON=C(CCc1cc(C)c(OC(C)(C)C(=O)O)c(C)c1)c1ccc(OC(F)(F)F)cc1 [Cpd. 7, 2-(4-(3-(methoxyimino)-3-(4-(trifluoromethoxy)phenyl)propyl)-2,6-dimethylphenoxy)-2-methylpropanoic acid]	66	107	42	
CCOC(CCc1ccc(OC(C)(C)C(=O)O)c(Cl)c1Cl)c1sc(-c2ccc(C(F)(F)F)cc2)nc1C (stereo not drawn) [Cpd. 9, 2-(2,3-dichloro-4-(3-ethoxy-3-(4-methyl-2-(4-(trifluoromethyl)-phenyl)thiazol-5-yl)propyl)phenoxy)-2-methylpropanoic acid]		127	77	
COC(CCc1cc(C)c(OC(C)(C)C(=O)O)c(C)c1)c1ccc(SC)cc1 (stereo not drawn) [Cpd. 13, 2-[2,6-dimethyl-4-[3-[4-(methylthio)phenyl]-3-methoxypropyl]phenoxy]-2-methylpropanoic acid]		111	18	% Inhibition of caspase activity over mean Veh. (HepG2 cells; 0.3 μM): 79%; inhibition at 1 µM (THP1 macrophages; [3]): 99%; inhibition at 1 µM (THP1 macrophages; [4]): 0%
COC(CCc1cc(C)c(OC(C)(C)C(=O)O)c(C)c1)c1ccc(Br)cc1 (stereo not drawn) [Cpd. 14, 2-[2,6-dimethyl-4-[3-[4-bromophenyl]-3-methoxypropyl]phenoxy]-2-methylpropanoic acid]	77	107	28	
CC(C)(Oc1ccc(CCNC(=O)c2ccc(Cl)cc2)cc1)C(=O)O [Cpd. 17, bezafibrate, reference compound]		54		
CC[C@@H](Oc1cccc(CN(CCCOc2ccc(OC)cc2)c2nc3ccccc3o2)c1)C(=O)O [Cpd. 18, pemafibrate, reference compound]		123		
CCc1ccc(CCOc2ccc(CC3SC(=O)NC3=O)cc2)nc1 (stereo not drawn) [Cpd. 21, pioglitazone, reference compound]	60	121	19	
CN(CCOc1ccc(CC2SC(=O)NC2=O)cc1)c1ccccn1 (stereo not drawn) [Cpd. 22, rosiglitazone, reference compound]				% inhibition of MCP1 secretion over mean Veh. (THP1 macrophages; 1 μM): 79%; % inhibition of TNFα secretion over mean Veh. (THP1 macrophages; 1 μM): 36%; % inhibition of MCP1 secretion over mean Veh. (THP1 macrophages; 10 μM): 117%; % inhibition of TNFα secretion over mean Veh. (THP1 macrophages; 10 μM): 11%
O=C(O)CCCc1cc2cc(Cl)ccc2n1S(=O)(=O)c1ccc2ncsc2c1 [Cpd. 23, lanifibranor, reference compound]		126	32	
